Consider twelve compounds from US11147816B2, “Composition for inducing differentiation and protection of neural stem cells and method for inducing neuro-regeneration using the same composition” (GENUV Inc., priority 2016, dated 2021).

Data set [1] deals with mouse embryonic neural stem cells. In words: Morphology analysis of NSC differentiation in mouse embryonic neural stem cells (Examples 1, 6). In kind it is cell-based. The note with it: for concentration at which differentiation morphology starts: tested at 0.1, 1.0, 10 μM. Here is the method:
Neural stem cells were isolated from the brain of a day 14.5 mouse embryo, treated with 10 ng/ml human basic fibroblast growth factor (bFGF) (Peprotech, Princeton, NG, cat#.100-18B) and 20 ng/ml human epidermal growth factor (EGF) (Peprotech, cat#. AF-100-15) in a N2 culture medium, and cultured in suspension in a 25 cm2 flask (Nunc, Pittsburgh, Pa.) for 4 days. Formation of neurospheres was observed after 2 days.
In order to isolate single cells, 6-well plates were prepared the day before by treating the wells with 15 μg/ml poly-L-ornithine (Sigma, St. Louis, Mo., cat#.P2533) solution and incubating overnight at 37° C. for coating. The day of the single cell isolation, poly-L-ornithine solution was removed, the plates were washed with PBS three times, and 10 μg/ml fibronectin (Gibco, Waltham, Mass., cat#. 33016015) solution was added and incubated at 37° C. for 2 hours for coating.
Various concentrations of the compound of [Formula 1] […]

Data set [2] relates to mouse adult neural stem cells. The note with it: for cell protection and NSC differentiation under amyloid-beta cytotoxicity: 10 μM amyloid-beta, each at its optimal concentration (AS703026 10, AZD8330 1, PD318088 1, binimetinib 10, refametinib 1, PD0325901 10, RO5126766 10 μM); for cell toxicity / cell death (morphology): AS703026 10 μM; for concentration at which the differentiation-inducing effect starts: no amyloid-beta. Here is the method:
NSC were isolated from the subventricular zone of week 8 mouse brain, treated with 20 ng/ml human basic fibroblast growth factor (bFGF) and 20 ng/ml human epidermal growth factor (EGF) in an IPM medium, and cultured as a suspension in 24-well plates for 7 days.
Two days before the isolation of single cells, 6-well plates were prepared by treating the wells with 10 μg/ml poly-L-ornithine solution and incubating overnight at room temperature for coating. The next day, poly-L-ornithine solution was removed and the plates were washed 3 times with sterilized triple distilled water. […] The culture solution used is N2 culture medium (supplemented with 20 ng/ml bFGF and 20 ng/ml EGF). Right before seeding, the coating solution was suctioned out, and the single cells were uniformly seeded into the culture plate before the plate dried up. Cells were allowed to attach to the plates for about one minute, and after checking that cells were sufficiently attached, an additional 1.5 ml of culture medium (N2 culture medium with 20 ng/ml bFGF and 20 ng/ml EGF) was added to the cells and cultured in a 37° C. incubator for 24 hours.
Wells not treated with amyloid-beta were left to use as negative controls.
Gibco's (Waltham, Mass.) human Aβ (1-42) was purchased to use for the amyloid-beta (Aβ), and the following process was followed to create oligomers. First, amyloid-beta was dissolved in 100% HFIP (1,1,1,3,3,3-hexafluoro-2-propanol) (Sigma, cat#.105228) to obtain a concentration of 1 mg/ml and vortexed at room temperature for 1 hour. Then, it was dried for 10 minutes in a speed Vac, after which DMSO (Sigma, cat#.D2650) was added to bring the concentration to 5 mM and then lightly vortexed at room temperature for 10 minutes. […] The solution was incubated at 4° C. for 24 hours and then added into the cultured cells.
The NCSs were cultured with the daily addition of EGF, bFGF, amyloid-beta, and test materials for 4 days.

Data set [3] relates to mouse embryonic neural stem cells. In words: Immunocytochemistry analysis, Tuj1 and DAPI staining (Example 3). In kind it is cell-based. The note with it: 4 days. Here is the method: Tuj1 (Neuron specific class III beta-tubulin) is a neuron specific marker protein, which was conjugated to rhodamine to show fluorescent red, while DAPI binds to the cell DNA and stains the cell nuclei fluorescent blue. […] The medium was removed and the cells were washed with PBS. After fixing with 10% formaldehyde (Sigma cat#. HT501128) at room temperature for 10 minutes, they were washed again with PBS. They were permeabilized with 0.2% Triton X-100 (Sigma, cat#. 93443) at room temperature for 15 minutes, washed with PBS, and incubated with 10% BSA (Sigma, cat#. A2153)+1% normal goat serum (Vector lab, Burlingame, Calif., cat#. S1000) at room temperature for 1 hour. […] The solution was removed, washed with PBS, and incubated at room temperature for 1 hour with the secondary antibody (rhodamine-conjugated antibody) diluted in 1% BSA+1% normal goat serum at a ratio of 1:200. Then, the cells were washed with PBS, incubated with 5 μg/ml DAPI (Sigma, cat#. D9542) for 5 minutes, washed with PBS again, and mounted on a slide glass for analysis with a fluorescent microscope.

Data set [4] has the same test system. In words: qRT-PCR of relative mRNA expression of neuronal markers in mouse embryonic NSC (Examples 4-1, 4-2, 6). In kind it is cell-based. The following applies: 10 μM (10000 nM). The procedure:
Isopropanol (Ducsan, GyunggiDo, Korea, cat#. 67-63-0) was added and mixed for RNA isolation, then centrifuged again to remove the supernatant and obtain the pellet. The RNA pellet was resuspended in 75% ethanol (Ducsan, cat#. 64-17-15), centrifuged, and the supernatant removed. The pellet was then resuspended in sterilized triple distilled water to obtain the mRNA, incubated for 10 minutes at 55° C., and stored at −80° C.
Sterilized triple distilled water, […] oligo dT, and 1 mM dNTP were added to the RNA and incubated for 5 minutes at 65° C. This was followed by the addition of 5X First-strand buffer, 10 mM DTT, and M-MLV reverse transcriptase and incubated at 42° C. for 1 hour, then at 72° C. for 15 minutes, and at 4° C. for 30 minutes. The synthesized cDNA was stored at −20° C.
The term relative mRNA expression level signifies that in order to normalize each group's total RNA level, the mRNA expression level of each differentiation marker is divided by the expression level of GAPDH whose expression level is fairly constant across cells, and then the values of each test material are compared with those of the controls (undifferentiated NSC) in each group.
(In qPCR the cycle at which signal appears reflects the starting amount.)

Data set [5] deals with MEK 1, MEK2. The note with it: literature reference; cited from earlier work.
The target of data set [6] is MEK1 (Homo sapiens (Human), UniProt Q02750). The note with it: cited from earlier work.
The target of data set [7] is MEK2 (Homo sapiens (Human), UniProt P36507). The note with it: cited from earlier work.
The mark [8] stands for this setting: trametinib 10 nM, 100 nM, memantine 5 μM, 10 μM, 4 days.
[9] abbreviates: 1.0 μM and 10 μM, day 2 of culture.
Where [10] appears, read: 1.0 nM and 10 nM, day 2 of culture.

Entries after “also recorded” stand apart in the source; their conditions may differ. Like-named read-outs stand apart in the source and are kept apart here.

MEK1, sequence (Q02750 whole entry, species assumed): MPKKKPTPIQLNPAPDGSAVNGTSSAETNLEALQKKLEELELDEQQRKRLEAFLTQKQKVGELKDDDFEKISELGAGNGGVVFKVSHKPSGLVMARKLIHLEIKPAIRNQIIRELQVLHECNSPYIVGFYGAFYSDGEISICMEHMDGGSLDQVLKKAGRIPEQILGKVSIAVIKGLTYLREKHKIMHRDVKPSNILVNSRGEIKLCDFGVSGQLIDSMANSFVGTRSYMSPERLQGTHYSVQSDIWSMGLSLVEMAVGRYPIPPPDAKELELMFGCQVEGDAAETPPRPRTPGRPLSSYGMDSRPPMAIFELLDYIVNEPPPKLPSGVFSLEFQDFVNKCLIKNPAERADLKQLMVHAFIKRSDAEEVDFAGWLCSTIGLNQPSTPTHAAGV
MEK2, sequence (P36507 whole entry, species assumed): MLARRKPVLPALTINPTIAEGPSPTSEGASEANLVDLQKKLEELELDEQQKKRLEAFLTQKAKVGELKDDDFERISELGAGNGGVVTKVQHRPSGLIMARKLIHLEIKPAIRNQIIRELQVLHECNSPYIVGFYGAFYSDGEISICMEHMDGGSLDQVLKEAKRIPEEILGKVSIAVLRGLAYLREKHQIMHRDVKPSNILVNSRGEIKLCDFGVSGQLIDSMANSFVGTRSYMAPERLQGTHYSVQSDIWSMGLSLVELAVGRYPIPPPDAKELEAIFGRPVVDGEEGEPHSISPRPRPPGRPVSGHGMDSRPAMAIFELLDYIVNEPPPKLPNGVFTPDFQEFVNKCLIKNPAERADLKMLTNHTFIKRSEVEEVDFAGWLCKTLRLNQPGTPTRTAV

For `O=C(NC[C@H](O)CO)c1ccncc1Nc1ccc(I)cc1F` [AS703026], the “concentration required for neuronal differentiation to initiate” value in data set [1] (added daily, 4 days of culture) was 1.0 µM. For the same compound, the “concentration at which differentiation morphology starts” value in data set [1] (day 2 of culture) worked out at 10 μM. Besides, the “cell protection and NSC differentiation under amyloid-beta cytotoxicity” value (“cell protection and NSC differentiation” below) in data set [2] (day 2) was “provided cell protection and induced the differentiation of NSC”. In data set [2] (regardless of 10 μM amyloid-beta treatment, 4 days), the “concentration required for neuronal differentiation” value was found to be 10 µM. Also, in data set [2] (setting [8]), the “cell toxicity / cell death (morphology)” value was “did not elicit cell toxicity”. Further, the “neuron differentiation by Tuj1 staining” value in data set [3] (0.1 μM) is on record as “no differentiation was observed”; in data set [3] (1.0 μM), “neuron differentiation occurs at this concentration, albeit only to a marginal extent”. In data set [4], the “Tuj1 and TH mRNA expression compared with trametinib” value is “comparable to those of 25 nM trametinib”.

As to `Cc1cc(C(=O)NOCCO)c(Nc2ccc(I)cc2F)n(C)c1=O` [AZD8330], in data set [1] (day 2 of culture), the “concentration at which differentiation morphology starts” value was determined as 1.0 μM. Further, the “cell protection and NSC differentiation” value in data set [2] (day 2) is “provided cell protection and induced the differentiation of NSC”.

For the compound `O=C(NOCC1CC1)c1ccc(F)c(F)c1Nc1ccc(I)cc1Cl` [PD184352], in data set [1] (0.1 μM, day 2 of culture), the “NSC differentiation-inducing effect (morphology)” value was “only a weak NSC differentiation-inducing effect”. For the same compound, the “cell death (morphology)” value in data set [1] (setting [9]) was “all the cells died”.

Take `O=C(NOCC(O)CO)c1cc(Br)c(F)c(F)c1Nc1ccc(I)cc1F` (stereo not drawn) [PD318088]: the “concentration at which differentiation morphology starts” value in data set [1] (day 2 of culture) stood at 1.0 μM. The “cell protection and NSC differentiation” value in data set [2] (day 2) was “provided cell protection and induced the differentiation of NSC”.

For `O=C(NOC[C@H](O)CO)c1ccc(F)c(F)c1Nc1ccc(I)cc1F` [PD0325901], the “concentration at which the differentiation-inducing effect starts” value in data set [2] (day 2 of culture) amounted to 0.1 µM.

Regarding `CNS(=O)(=O)Nc1nccc(Cc2c(C)c3ccc(Oc4ncccn4)cc3oc2=O)c1F` [RO5126766], in data set [2] (day 2), the “cell protection and NSC differentiation” value is “provided cell protection and induced the differentiation of NSC”. Also, in data set [2] (day 2 of culture), the “concentration at which the differentiation-inducing effect starts” value was 1.0 µM.

As to `N#CC(=C(/N)Sc1ccccc1N)/C(C#N)=C(\N)Sc1ccccc1N` [U0126], the “cell proliferation (morphology)” value in data set [2] (0.1 μM and 1.0 μM, day 2 of culture) is listed as “inhibition of cell proliferation”. For the same compound, the “differentiation-inducing effect (morphology)” value in data set [2] (2.5 μM, day 2 of culture) is given as “did not show any clear differentiation-inducing effect”. Moreover, the “cytotoxicity (morphology)” value in data set [2] (10 μM, day 2 of culture) is “showed cell cytotoxicity”. Besides, in data set [2] (all concentrations tested), the “NSC differentiation-inducing effect (morphology)” value is given as “failed to show any NSC differentiation-inducing effect”.

In the case of `Cn1cnc2c(F)c(Nc3ccc(Br)cc3F)c(C(=O)NOCCO)cc21` [binimetinib], the “concentration at which differentiation morphology starts” value in data set [1] (day 2 of culture) is on record as 10 μM. Also, the “cell protection and NSC differentiation” value in data set [2] (day 2) is “provided cell protection and induced the differentiation of NSC”. The IC50 (as a rule, the concentration at which inhibition is half-maximal) in data set [5] is 12 nM.

As for `O=C(c1ccc(F)c(F)c1Nc1ccc(I)cc1F)N1CC(O)([C@@H]2CCCCN2)C1` [cobimetinib], in data set [2] (10 μM, regardless of amyloid-beta, day 2), the “differentiation of adult NSC (morphology)” value is “did not induce the differentiation of adult NSC; also recorded: does not induce the differentiation of mouse adult neural stem cells”. For the same compound, in data set [6] (Molecules 2017;22:1551), the “selectivity toward MEK1 compared with MEK2” value is at least 100 ×. The IC50 in data set [6] was 0.95 nM; in data set [7], 199 nM.

Consider `CC12CC3CC(C)(C1)CC(N)(C3)C2` [memantine], for which the “cell toxicity / cell death (morphology)” value in data set [2] (setting [8]) is “death of neural stem cells”. The “differentiation of NSC into neurons (morphology)” value in data set [2] (with or without 10 μM oligomeric Aβ(1-42), trametinib 10 nM, 100 nM, memantine 5 μM, 10 μM, 4 days) is given as “the differentiation of NSC into neurons was not observed”.

With `COc1cc(F)c(F)c(Nc2ccc(I)cc2F)c1NS(=O)(=O)C1(C[C@H](O)CO)CC1` [refametinib], the “concentration at which differentiation morphology starts” value in data set [1] (day 2 of culture) was 1.0 μM. Also, the “cell protection and NSC differentiation” value in data set [2] (day 2) was “provided cell protection and induced the differentiation of NSC”.

Regarding BI847325, the “cell proliferation (morphology)” value in data set [2] (setting [10]) is listed as “cell proliferation seemed to be somewhat inhibited”. For the same compound, the “differentiation-inducing effect (morphology)” value is given as “a differentiation-inducing effect was not observed” in data set [2] (setting [10]) and “only a weak differentiation-inducing effect” in data set [2] (0.1 μM, day 2 of culture). Further, the “cell death (morphology)” value in data set [2] (setting [9]) was “all the cells died”.
